Reference: publication PMC10916518 (Drug Design, Development and Therapy, 2024)
Values after ≈ are worked out from the molar mass of the structure shown.

How the values were obtained:
RD cells = experiment: Cytotoxicity of medicines by CCK-8; type: cell-based, human; conditions: 48 h
[1] = Cytotoxicity of medicines by CCK-8; type: cell-based, human; conditions: human, RD cells
EV71 [2] = experiment: Inhibition of cell death caused by EV71 infection; type: cell-based, Enterovirus 71; conditions: Enterovirus A, EV71, RD, 48 h
EV71 [3] = conditions: Vero cells pretreated with 200 μM before infection; cited from earlier work

Compound | MNTC (RD cells) [µg/mL] | also measured
NC(=O)c1ncn([C@@H]2O[C@H](CO)[C@@H](O)[C@H]2O)n1 [ribavirin, Ribavirin, reference compound] |  | MNTC (maximum non-toxic concentration) (RD cells; cell survival rate ≥ 90%): 1 mg/mL; CC50 at 48 h [1]: 2430 µg/mL (≈ 9950 µM); IC50 (EV71 [2]): 290 µg/mL (≈ 1190 µM)
O=C(/C=C/c1ccc(O)c(O)c1)O[C@H]1[C@H](O)C[C@](O)(C(=O)O)C[C@H]1O [Cryptochlorogenic acid, cryptochlorogenic acid] | 100.00 | 
O=C(O)c1cc(O)c(O)c(O)c1 [Gallic acid, gallic acid] | 6.25 | 
O=C(O)/C=C/c1ccc(O)c(O)c1 [Caffeic acid] | 50.00 | 
O=c1c(O[C@@H]2O[C@H](CO)[C@@H](O)[C@H](O)[C@H]2O)c(-c2ccc(O)cc2)oc2cc(O)cc(O)c12 [Astragalin] | 200.00 | 
O=c1c(O[C@@H]2O[C@H](CO)[C@H](O)[C@H](O)[C@H]2O)c(-c2ccc(O)c(O)c2)oc2cc(O)cc(O)c12 [Hyperoside] | 200.00 | 
C[C@@H]1O[C@@H](OC[C@H]2O[C@@H](Oc3c(-c4ccc(O)c(O)c4)oc4cc(O)cc(O)c4c3=O)[C@H](O)[C@@H](O)[C@@H]2O)[C@H](O)[C@H](O)[C@H]1O [Rutin, rutin] | 200.00 | EV71-induced CPE and viral replication (EV71 [3]): significantly suppress
O=C(/C=C/c1ccc(O)c(O)c1)O[C@H](Cc1ccc(O)c(O)c1)C(=O)O [Rosmarinic acid, rosmarinic acid] | 50.00 | IC50 (EV71 [2]): 11.9 µg/mL (≈ 33 µM)
